Each structure is given as a SMILES string.

One assay relates to HeLa. Briefly: Cytotoxicity against human HeLa cells measured after 2 days by MTT assay. Conditions: 48 h. It is filed as functional, cell-based. On the technique in general: Tetrazolium assays rely on reduction of a dye to a coloured formazan, in cell work by metabolically active cells.
Another assay has as its system HCT-15. Briefly: Cytotoxicity against human HCT15 cells measured after 2 days by MTT assay. It is filed as functional, cell-based. Conditions: HCT-15, 48 h.
In assay [1] the target is T1, DNA topoisomerase 1 (Homo sapiens) (UniProt P11387).
T1 sequence (whole entry): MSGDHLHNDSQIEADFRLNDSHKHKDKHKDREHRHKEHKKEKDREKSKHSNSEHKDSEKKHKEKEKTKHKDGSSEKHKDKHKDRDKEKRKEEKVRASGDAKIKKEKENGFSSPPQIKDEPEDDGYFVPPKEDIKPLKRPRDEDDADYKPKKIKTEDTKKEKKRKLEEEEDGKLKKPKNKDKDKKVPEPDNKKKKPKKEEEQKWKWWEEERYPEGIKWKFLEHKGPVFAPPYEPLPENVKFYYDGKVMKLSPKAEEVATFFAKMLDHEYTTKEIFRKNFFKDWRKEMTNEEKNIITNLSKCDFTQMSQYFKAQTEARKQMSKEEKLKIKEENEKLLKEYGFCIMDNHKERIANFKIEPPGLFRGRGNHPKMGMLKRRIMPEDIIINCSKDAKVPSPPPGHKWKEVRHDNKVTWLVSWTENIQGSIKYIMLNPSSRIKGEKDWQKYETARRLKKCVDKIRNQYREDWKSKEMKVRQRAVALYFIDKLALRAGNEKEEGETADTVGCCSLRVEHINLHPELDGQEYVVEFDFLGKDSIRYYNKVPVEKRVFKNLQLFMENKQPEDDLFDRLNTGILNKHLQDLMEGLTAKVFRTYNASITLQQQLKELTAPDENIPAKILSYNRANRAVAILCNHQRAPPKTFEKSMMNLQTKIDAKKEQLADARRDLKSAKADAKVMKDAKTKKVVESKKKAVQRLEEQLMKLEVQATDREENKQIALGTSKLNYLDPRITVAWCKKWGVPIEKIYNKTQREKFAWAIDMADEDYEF
Briefly: Potency index, ratio of compound activity to CPT activity for inhibition of recombinant human topoisomerase 1 at 100 uM.

The target in assay [2] is DNA topoisomerase 2-alpha (Homo sapiens) (UniProt P11388). Put plainly: Inhibition of recombinant human topoisomerase 2alpha assessed as relaxation of supercoiled plasmid DNA pBR322 at 100 uM incubated for 30 mins by agarose gel electrophoresis.
Assay [3] concerns the target T1, DNA topoisomerase 1 (Homo sapiens). Put plainly: Inhibition of recombinant human topoisomerase 1 assessed as relaxation of supercoiled plasmid DNA pBR322 at 100 uM incubated for 30 mins by agarose gel electrophoresis.
The target is the same in assay [4]. Put plainly: Inhibition of recombinant human topoisomerase 1 assessed as relaxation of supercoiled plasmid DNA pBR322 at 20 uM incubated for 30 mins by agarose gel electrophoresis.
A further assay deals with T47D. Put plainly: Cytotoxicity against human T47D cells measured after 2 days by MTT assay. It counts as functional, cell-based. Conditions: 48 h.
Assay [5] deals with T1, DNA topoisomerase 1 (Homo sapiens). Put plainly: Potency index, ratio of compound activity to CPT activity for inhibition of recombinant human topoisomerase 1 at 20 uM.
Assay [6] addresses DNA topoisomerase 2-alpha (Homo sapiens) (UniProt P11388). Put plainly: Potency index, ratio of compound activity to etoposide activity for inhibition of recombinant human topoisomerase 2alpha at 100 uM.

Chain of DNA topoisomerase 2-alpha (Homo sapiens) (P11388 whole entry): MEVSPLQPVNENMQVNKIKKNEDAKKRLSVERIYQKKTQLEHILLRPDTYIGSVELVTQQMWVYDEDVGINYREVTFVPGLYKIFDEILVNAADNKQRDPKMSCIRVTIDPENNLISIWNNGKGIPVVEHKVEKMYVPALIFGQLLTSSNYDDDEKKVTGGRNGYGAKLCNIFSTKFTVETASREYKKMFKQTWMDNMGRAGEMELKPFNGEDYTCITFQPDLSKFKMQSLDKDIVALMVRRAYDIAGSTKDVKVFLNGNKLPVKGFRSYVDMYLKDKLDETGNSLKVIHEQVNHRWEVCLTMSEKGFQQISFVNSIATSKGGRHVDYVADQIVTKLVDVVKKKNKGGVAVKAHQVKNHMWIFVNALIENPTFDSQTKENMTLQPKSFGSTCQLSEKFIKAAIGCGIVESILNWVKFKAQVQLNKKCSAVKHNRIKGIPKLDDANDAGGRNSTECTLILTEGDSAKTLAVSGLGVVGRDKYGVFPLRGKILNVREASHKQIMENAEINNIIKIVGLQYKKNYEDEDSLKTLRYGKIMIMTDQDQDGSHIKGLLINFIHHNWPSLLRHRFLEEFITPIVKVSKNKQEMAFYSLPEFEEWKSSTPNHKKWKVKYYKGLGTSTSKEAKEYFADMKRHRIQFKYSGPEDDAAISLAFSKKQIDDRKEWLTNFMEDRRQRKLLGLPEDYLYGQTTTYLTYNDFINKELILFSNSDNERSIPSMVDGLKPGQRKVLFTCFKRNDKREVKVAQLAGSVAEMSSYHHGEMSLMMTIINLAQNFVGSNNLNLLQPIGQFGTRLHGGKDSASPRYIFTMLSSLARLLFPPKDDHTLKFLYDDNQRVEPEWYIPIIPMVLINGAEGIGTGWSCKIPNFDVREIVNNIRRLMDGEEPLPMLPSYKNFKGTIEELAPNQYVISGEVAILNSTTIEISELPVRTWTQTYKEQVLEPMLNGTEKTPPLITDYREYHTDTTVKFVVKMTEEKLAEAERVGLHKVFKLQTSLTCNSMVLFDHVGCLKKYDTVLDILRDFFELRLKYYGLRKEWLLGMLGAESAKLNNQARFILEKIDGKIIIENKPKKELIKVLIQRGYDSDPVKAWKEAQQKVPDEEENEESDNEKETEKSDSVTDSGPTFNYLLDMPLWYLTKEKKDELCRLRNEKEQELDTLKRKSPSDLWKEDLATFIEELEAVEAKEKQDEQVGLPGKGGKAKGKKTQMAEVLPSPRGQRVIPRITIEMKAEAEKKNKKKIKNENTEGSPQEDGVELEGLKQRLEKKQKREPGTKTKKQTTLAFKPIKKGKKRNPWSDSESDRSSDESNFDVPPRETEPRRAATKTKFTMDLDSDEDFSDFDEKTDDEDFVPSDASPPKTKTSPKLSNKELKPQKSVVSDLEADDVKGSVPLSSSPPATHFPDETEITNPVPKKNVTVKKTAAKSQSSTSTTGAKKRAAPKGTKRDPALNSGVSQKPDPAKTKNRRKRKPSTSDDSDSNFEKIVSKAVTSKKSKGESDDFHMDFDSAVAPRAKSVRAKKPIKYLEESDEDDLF

Regarding `Cc1ccc2nc(-c3cccc(OC(F)(F)F)c3)[nH]c(=O)c2c1`, the IC50 with HeLa, in the assay with HCT-15 and with T47D was more than 50 µM each time. Further, in assay [1], the Ratio was 1.39. Further, the inhibition – broadly, the change of the read-out against control, counted positive when it falls – stood at 0% in assay [2], 98.6% in assay [3] and 0% in assay [4].

With `Cc1ccc2nc(-c3ccccc3C)[nH]c(=O)c2c1`, the IC50 (as a rule, the concentration that gives 50% inhibition) with HeLa was 4.58 µM; in the assay with HCT-15 it was 11.7 µM; with T47D, more than 50 µM. Further, the inhibition in assay [2] and in [3] was 0% in each case.

For `CCN(CC)c1ccc2nc(-c3cccc4ccccc34)[nH]c(=O)c2c1`, the results for the IC50 with HeLa, with HCT-15 and in the assay on T47D were 0.004 µM, 3.21 µM and 2.69 µM, respectively. Besides, the Ratio was 1.17 in [1] and 0.83 in assay [5]. In addition, the values for the inhibition in [2], in assay [3] and in assay [4] were 0%, 90.4% and 25.5%, respectively.

For the molecule `CCN(CC)c1ccc2nc(-c3ccccc3OC(F)(F)F)[nH]c(=O)c2c1`, the IC50 in the assay on HeLa amounted to 0.04 µM; in the assay on HCT-15, 1.71 µM; with T47D, 1.67 µM. Besides, the Ratio in [1] was determined as 0.98. Further, the inhibition was 0% in assay [2], 81.2% in [3] and 0% in assay [4].

Take `CCN(CC)c1ccc2nc(-c3ccccc3N(C)C)[nH]c(=O)c2c1`: the IC50 was determined as 0.07 µM in the assay on HeLa, 4.2 µM in the assay on HCT-15 and 2.21 µM in the assay on T47D. Also, in assay [1], the Ratio came out at 0.99. Also, the inhibition in assay [2] stood at 0%; in assay [3] it was 82.1%; in assay [4], 0%.

Turning to `Cc1ccc2c(=O)[nH]c(-c3cccc(C(F)(F)F)c3)nc2c1`, the IC50 in the assay with HeLa, in the assay with HCT-15 and with T47D was more than 50 µM in each case. Moreover, the figures for the Ratio in assay [1] and in assay [5] were 1.29 and 3.04, respectively. The inhibition in [2] came to 0%; in assay [3], 100%; in assay [4], 93.6%.

For the molecule `Cc1ccc2nc(-c3ccccc3F)[nH]c(=O)c2c1`, the IC50 in the assay with HeLa, in the assay on HCT-15 and in the assay on T47D was more than 50 µM in each case. Further, the Ratio was 0.84 in [1] and 2.11 in assay [5]. Moreover, the values for the inhibition in assay [2], in assay [3] and in assay [4] were 0%, 67.9% and 36.3%, respectively.

Regarding `Cc1ccc2nc(-c3cccc(F)c3)[nH]c(=O)c2c1`, the IC50 with HeLa, in the assay on HCT-15 and in the assay with T47D was more than 50 µM throughout. For the same molecule, the Ratio in assay [1] was determined as 1.03; in assay [5], 0.01. The inhibition in assay [2] was 0%; in assay [3] it was 82.9%; in [4], 0.2%.

Consider `COc1cc([C@@H]2c3cc4c(cc3[C@@H](O[C@@H]3O[C@@H]5CO[C@@H](C)O[C@H]5[C@H](O)[C@H]3O)[C@H]3COC(=O)[C@H]23)OCO4)cc(OC)c1O` [ETOPOSIDE], for which the 50% inhibitory concentration (IC50) was 7.6 µM in the assay on HeLa, 5.54 µM in the assay on HCT-15 and 9.28 µM in the assay on T47D.

`COc1cccc(-c2nc3ccc(N4CCCCC4)cc3c(=O)[nH]2)c1OC`: the IC50 was 8.19 µM in the assay with HeLa, 24.8 µM with HCT-15 and 10.4 µM with T47D. Also, the Ratio in [1] is 0.97. Also, the inhibition was 0% in [2], 80.9% in assay [3] and 0% in assay [4].

As for `Cc1ccc2nc(-c3ccccc3OC(F)(F)F)[nH]c(=O)c2c1`, the IC50 with HeLa was 0.85 µM; in the assay on HCT-15, 2.79 µM; in the assay with T47D, more than 50 µM. For the same molecule, the Ratio in [6] stood at 0.06; in [1] it was 0.83. For the same molecule, the inhibition in assay [2] stood at 5.47%; in [3], 66.9%; in [4], 0%.

`CCN(CC)c1ccc2nc(-c3ccccc3C(F)(F)F)[nH]c(=O)c2c1`: the IC50 in the assay with HeLa turned out to be 0.1 µM; with HCT-15 it was 0.28 µM; in the assay on T47D, 2.55 µM. In addition, the values for the Ratio in assay [6], in assay [1] and in assay [5] were 0.11, 0.98 and 0.49, respectively. For the same molecule, the inhibition in assay [2] stood at 9.4%; in assay [3], 81.7%; in assay [4], 13.3%.

Turning to `COc1cccc2c1C(=O)c1c(O)c3c(c(O)c1C2=O)C[C@@](O)(C(=O)CO)C[C@@H]3O[C@H]1C[C@H](N)[C@H](O)[C@H](C)O1` [DOXORUBICIN], the IC50 was 0.52 µM in the assay with HeLa, 3.33 µM in the assay on HCT-15 and 1.9 µM with T47D.

With `CN(C)c1ccc2nc(-c3cccc4ccccc34)[nH]c(=O)c2c1`, the IC50 in the assay on HeLa was 0.05 µM; in the assay with HCT-15, 0.46 µM; in the assay on T47D it was more than 50 µM. The Ratio in [1] was 1.24; in [5], 0.14. In addition, the inhibition was determined as 0% in assay [2], 100% in assay [3] and 2.4% in [4].

For `Cc1ccc2c(=O)[nH]c(-c3cccc(OC(F)(F)F)c3)nc2c1`, the IC50 in the assay with HeLa, with HCT-15 and in the assay with T47D was more than 50 µM in each case. Moreover, the Ratio in assay [1] turned out to be 0.93. The figures for the inhibition in assay [2], in assay [3] and in assay [4] were 0%, 77.2% and 0%, respectively.

Turning to `Cc1ccc2c(=O)[nH]c(-c3cccc4ccccc34)nc2c1`, the figures for the IC50 with HeLa, in the assay with HCT-15 and with T47D were more than 50 µM, 23.3 µM and more than 50 µM, respectively. Further, the Ratio in assay [1] came to 1.29; in assay [5], 1.95. Besides, the results for the inhibition in assay [2], in assay [3] and in assay [4] were 0%, 100% and 60.1%, respectively.

Take `O=c1[nH]c(-c2cccc3ccccc23)nc2ccc(N3CCCCC3)cc12`: the results for the IC50 in the assay with HeLa, with HCT-15 and in the assay on T47D were 0.33 µM, 2.24 µM and more than 50 µM, respectively. Further, the Ratio in [1] worked out at 1.24; in assay [5], 1.94. In addition, the inhibition in assay [2] came out at 0%; in assay [3] it was 100%; in assay [4], 33.4%.

For the molecule `CC[C@@]1(O)C(=O)OCc2c1cc1n(c2=O)Cc2cc3ccccc3nc2-1` [CAMPTOTHECIN], the IC50 in the assay with HeLa was found to be 1.59 µM; with HCT-15 it was 6.08 µM; in the assay with T47D it was 1.62 µM.

For the molecule `Cc1ccc2c(=O)[nH]c(-c3ccccc3OC(F)(F)F)nc2c1`, the results for the IC50 in the assay with HeLa, with HCT-15 and in the assay with T47D were 18.3 µM, 15.9 µM and more than 50 µM, respectively. In addition, the Ratio in assay [1] came to 1.29; in assay [5], 3.25. The inhibition in [2] is 0%; in assay [3], 100%; in assay [4], 100%.

Regarding `Cc1ccc2c(=O)[nH]c(-c3ccccc3F)nc2c1`, the IC50 is 0.83 µM in the assay on HeLa, 10.3 µM in the assay with HCT-15 and more than 50 µM with T47D. Further, the Ratio in assay [1] was 0.98. Also, the inhibition in assay [2] is 0%; in [3], 81.2%; in [4] it was 0%.

For the molecule `Cc1ccc2nc(-c3cccc4ccccc34)[nH]c(=O)c2c1`, the IC50 was 5.36 µM in the assay on HeLa, more than 50 µM with HCT-15 and more than 50 µM in the assay on T47D. The results for the Ratio in assay [6] and in [1] were 0.06 and 0.05, respectively. Besides, the values for the inhibition in assay [2] and in assay [3] were 5.5% and 4.1%, respectively.

The values are drawn from ChEMBL document CHEMBL3632492, “Substituted 2-arylquinazolinones: Design, synthesis, and evaluation of cytotoxicity and inhibition of topoisomerases” (Eur J Med Chem, 2015).
